Source: BigSolDB 2.1

NC(=NCCCCCCN=C(N)/N=C(\N)Nc1ccc(Cl)cc1)/N=C(\N)Nc1ccc(Cl)cc1
solubility (mole fraction)
Conditions	283.15 K	288.15 K	293.15 K	298.15 K	303.15 K	308.15 K	313.15 K	318.15 K	323.15 K
in 1,4-dioxane	–	0.000569	0.000674	0.000764	0.000888	0.00102	0.00117	0.00133	0.00153
in DMF	0.00795	0.00941	0.0111	0.0131	0.0153	0.018	0.0206	0.0241	0.0277
in ethanol	0.000405	0.000471	0.000539	0.000613	0.000706	0.000803	0.000914	0.00103	0.00117
in methanol	0.000656	0.000751	0.000846	0.000967	0.00108	0.00123	0.00137	0.00154	0.00173
in water	1.45e-06	2.03e-06	2.79e-06	3.84e-06	5.21e-06	7.06e-06	9.32e-06	1.23e-05	1.62e-05
